For seven compounds, IC50 results are on record in patent US12570655B2, “Cysteine covalent modifiers of AKT1 and uses thereof” (Terremoto Biosciences, Inc., priority 2023, dated 2026).

Common to all, as to format: cell-based
Test [1] concerns LAPC4 prostate cancer cells. The test is described as follows: Antiproliferative effects in LAPC4 cells (CellTiter Glo). To be noted: LAPC4 cells (AKT1 E17K allele), read-out: LAPC4 proliferation IC50. A digest of the protocol:
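LAPC4 cells were cultured in IMDM with 12% FBS and 1% P/S, seeded at 1,000 cells/well and exposed to compound dilutions in DMSO. After 72 h, intracellular ATP was measured by CellTiter Glo luminescence, and IC50 values came from a log(inhibitor) vs. response Hill fit.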
For orientation: In ATP-based viability assays light output follows the ATP content of the culture.

Another test has as its target T1, AKT1 E17K (Homo sapiens, UniProt P31749, E17K).
T1 construct: expressed in transfected cells; host or cells: HEK293
The test can be described thus: Live cell AKT1 E17K target engagement by NanoBRET competitive probe displacement. Conditions: HEK293 cells transfected with kinase-NanoLuciferase fusion, 2 h at 37° C. In a few lines:
(§1)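 HEK293 cells transiently expressing kinase–NanoLuciferase fusions (overnight transfection) were treated with serial compound dilutions plus fluorescent ATP-competitive tracer at ~EC50 concentration for 2 h at 37 °C. BRET ratio E600/E460 measured after substrate and extracellular luciferase inhibitor addition; IC50 from log(inhibitor)–response Hill fit.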

Another test deals with T2, AKT1 WT (Homo sapiens, UniProt P31749).
T2 construct: expressed in transfected cells; host or cells: HEK293
The test is described as follows: Live cell AKT1 WT target engagement by NanoBRET competitive probe displacement. To be noted: HEK293 cells transfected with kinase-NanoLuciferase fusion, 2 h at 37° C. A digest of the protocol: as §1
Background: In BRET a luciferase serves as donor, and the signal depends on an acceptor being close.

A further test addresses T3, AKT2 (Homo sapiens, UniProt P31751).
T3 construct: expressed in transfected cells; host or cells: HEK293
The test can be described thus: Live cell AKT2 target engagement by NanoBRET competitive probe displacement. To be noted: HEK293 cells transfected with kinase-NanoLuciferase fusion, 2 h at 37° C. A digest of the protocol: as §1

Where two headings read alike, the source gives them in different places.

T1 sequence (P31749 whole entry E17K): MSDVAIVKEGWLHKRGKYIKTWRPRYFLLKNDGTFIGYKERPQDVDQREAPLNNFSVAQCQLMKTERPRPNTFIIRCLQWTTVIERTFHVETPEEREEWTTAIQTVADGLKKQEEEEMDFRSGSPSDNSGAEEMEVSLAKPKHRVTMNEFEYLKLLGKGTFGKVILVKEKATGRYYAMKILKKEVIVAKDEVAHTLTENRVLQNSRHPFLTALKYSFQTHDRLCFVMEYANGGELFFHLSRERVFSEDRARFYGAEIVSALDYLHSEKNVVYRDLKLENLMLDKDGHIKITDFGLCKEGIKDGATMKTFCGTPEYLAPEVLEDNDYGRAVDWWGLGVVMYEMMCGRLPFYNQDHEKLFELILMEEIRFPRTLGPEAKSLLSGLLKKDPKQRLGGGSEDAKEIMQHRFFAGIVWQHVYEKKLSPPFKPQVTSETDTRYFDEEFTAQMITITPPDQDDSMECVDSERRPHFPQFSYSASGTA
T3 sequence (P31751 whole entry): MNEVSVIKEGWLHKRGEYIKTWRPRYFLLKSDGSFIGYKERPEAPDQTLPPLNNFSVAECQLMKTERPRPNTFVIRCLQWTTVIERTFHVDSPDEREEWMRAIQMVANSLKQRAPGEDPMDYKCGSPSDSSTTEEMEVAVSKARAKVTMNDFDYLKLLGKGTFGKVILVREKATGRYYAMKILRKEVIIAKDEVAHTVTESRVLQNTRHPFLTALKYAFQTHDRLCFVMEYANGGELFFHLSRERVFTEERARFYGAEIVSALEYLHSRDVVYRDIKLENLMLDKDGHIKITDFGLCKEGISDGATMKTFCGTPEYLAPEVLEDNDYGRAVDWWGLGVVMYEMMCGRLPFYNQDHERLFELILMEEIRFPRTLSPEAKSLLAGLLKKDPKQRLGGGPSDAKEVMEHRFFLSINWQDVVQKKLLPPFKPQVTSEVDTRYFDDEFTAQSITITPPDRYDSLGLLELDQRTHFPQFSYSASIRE
T2 sequence (P31749 whole entry): as the sequence (P31749 whole entry E17K) above, with K17E counted along it

Regarding `C=CC(=O)N1CCC(N[C@H]2CCc3cc(-n4c(-c5cccnc5N)nc5ccc(-n6nccn6)nc54)ccc32)C[C@H]1C` (single isomer, unassigned) [Example 261, 1-[(2R,4*)-4-{[(1S)-5-[2-(2-aminopyridin-3-yl)-5-(1,2,3-triazol-2-yl)imidazo[4,5-b]pyridin-3-yl]-2,3-dihydro-1H-inden-1-yl]amino}-2-methylpiperidin-1-yl]prop-2-en-1-one], the IC50 in test [1] (72 h) turned out to be 227 nM; on AKT1 E17K it was 43.3 nM; at AKT1 WT, 555 nM; on AKT2, 136 nM.
Turning to `C#CC1CC(N[C@H]2CCc3cc(-n4c(-c5cccnc5N)nc5ccc(-n6cccn6)nc54)ccc32)CCN1C(=O)C=C` (single isomer, unassigned) [Example 114, 1-((2*,4*)-4-(((S)-5-(2-(2-aminopyridin-3-yl)-5-(1H-pyrazol-1-yl)-3H-imidazo[4,5-b]pyridin-3-yl)-2,3-dihydro-1H-inden-1-yl)amino)-2-ethynylpiperidin-1-yl)prop-2-en-1-one], the IC50 came out at 12.5 nM in test [1] (72 h), 8.34 nM on AKT1 E17K, 8.56 nM at AKT1 WT and 21.9 nM at AKT2.
For `C=CC(=O)N1CCC(N[C@@H]2c3ccc(-n4c(-c5cccnc5N)nc5ccc(-n6cccn6)nc54)cc3CC2F)C[C@H]1C` (single isomer, unassigned) [Example 143, 1-((2R,4*)-4-(((1R,2*)-5-(2-(2-aminopyridin-3-yl)-5-(1H-pyrazol-1-yl)-3H-imidazo[4,5-b]pyridin-3-yl)-2-fluoro-2,3-dihydro-1H-inden-1-yl)amino)-2-methylpiperidin-1-yl)prop-2-en-1-one], the IC50 in test [1] (Homo sapiens, LAPC4, 72 h) was 499 nM; at AKT1 E17K, 353 nM; at AKT1 WT, 60.2 nM; at AKT2, 1260 nM.
For the compound `C=C(F)C(=O)Nc1ccccc1C(=O)N[C@H]1CCc2cc(-n3c(-c4cccnc4N)nc4ccc(-n5nccn5)nc43)ccc21` [Example 23, (S)-N-(5-(2-(2-aminopyridin-3-yl)-5-(2H-1,2,3-triazol-2-yl)-3H-imidazo[4,5-b]pyridin-3-yl)-2,3-dihydro-1H-inden-1-yl)-2-(2-fluoroacrylamido)benzamide], the IC50 in test [1] (Homo sapiens, LAPC4, 72 h) came out at 426 nM; at AKT1 E17K, 135 nM; on AKT1 WT, 50.1 nM; on AKT2 it was 2250 nM.
Consider `C=CC(=O)N1CCC(N[C@H]2CCc3cc(-n4c(-c5cccnc5N)nc5ccc(-n6cccn6)nc54)ccc32)C(O)C1` (single isomer, unassigned) [Example 139, 1-[(3*,4*)-4-{[(1S)-5-[2-(2-aminopyridin-3-yl)-5-(pyrazol-1-yl)imidazo[4,5-b]pyridin-3-yl]-2,3-dihydro-1H-inden-1-yl]amino}-3-hydroxypiperidin-1-yl]prop-2-en-1-one], for which the IC50 in test [1] (72 h) was found to be 41.9 nM; on AKT1 E17K, 29.7 nM; at AKT1 WT, 13.5 nM; at AKT2 it was 114 nM.
In the same order, the values of `C=CC(=O)N1CCC(N[C@@H]2c3ccc(-n4c(-c5ccccc5F)nc5ccc(-n6cccn6)nc54)cc3CC2F)CC1` (single isomer, unassigned) [Example 300, 1-(4-(((1R,2*)-2-fluoro-5-(2-(2-fluorophenyl)-5-(1H-pyrazol-1-yl)-3H-imidazo[4,5-b]pyridin-3-yl)-2,3-dihydro-1H-inden-1-yl)amino)piperidin-1-yl)prop-2-en-1-one] are 389 nM, 9.07 nM, 2330 nM and 34.9 nM.
With `C#CC1CC(N[C@H]2CCc3cc(-n4c(-c5cccnc5N)nc5ccc(-n6cccn6)nc54)ccc32)CCN1C(=O)C=C` (single isomer, unassigned) [Example 112, 1-((2*,4*)-4-(((S)-5-(2-(2-aminopyridin-3-yl)-5-(1H-pyrazol-1-yl)-3H-imidazo[4,5-b]pyridin-3-yl)-2,3-dihydro-1H-inden-1-yl)amino)-2-ethynylpiperidin-1-yl)prop-2-en-1-one], the IC50 in test [1] (72 h) is 11.8 nM; on AKT1 E17K, 8.06 nM; at AKT1 WT, 9.52 nM; at AKT2, 17.6 nM.
